Measurements published in BindingDB's records for patent US11896597 (Dizal (Jiangsu) Pharmaceutical, 2024).

Assays:
[1] = target: Epidermal growth factor receptor (Homo sapiens, UniProt P00533); assay: Potency Assessment EGFR (WT) and EGFR Mutants
Protocol: (§1) The next day, tested compounds at a series of concentrations were added into each individual well of the plates, and the plates were incubated for 4 h at 37 C. with 5% CO2. […] The assay is an electrochemiluminescent method for determining both phosphorylated and total EGFR of cells with an MSD SECTOR Imager and the ratio of p-EGFR/total EGFR can be generated by the machine. The Her2 (Y1248) phosphorylation level (activity) of cells in each well were measured with MSD Kit named Phospho-ErbB2 (Tyr1248) Assay Whole Cell Lysate Kit according to the manufacturer's instruction (MESO SCALE DISCOVERY, Cat #K151CLD-3). The assay is an electrochemiluminescent method (MESO SCALE DISCOVERY) for determining both phosphorylated and total Her2 of cells with an MSD SECTOR Imager and then the ratio of p-Her2/total Her2 can be generated by the machine.

[2] = target: Epidermal growth factor receptor [T790M,L858R] (Homo sapiens, UniProt P00533, L858R/T790M); assay: Potency Assessment EGFR (WT) and EGFR Mutants
Epidermal growth factor receptor [T790M,L858R], sequence (P00533 25-1210 T790M/L858R limits assumed): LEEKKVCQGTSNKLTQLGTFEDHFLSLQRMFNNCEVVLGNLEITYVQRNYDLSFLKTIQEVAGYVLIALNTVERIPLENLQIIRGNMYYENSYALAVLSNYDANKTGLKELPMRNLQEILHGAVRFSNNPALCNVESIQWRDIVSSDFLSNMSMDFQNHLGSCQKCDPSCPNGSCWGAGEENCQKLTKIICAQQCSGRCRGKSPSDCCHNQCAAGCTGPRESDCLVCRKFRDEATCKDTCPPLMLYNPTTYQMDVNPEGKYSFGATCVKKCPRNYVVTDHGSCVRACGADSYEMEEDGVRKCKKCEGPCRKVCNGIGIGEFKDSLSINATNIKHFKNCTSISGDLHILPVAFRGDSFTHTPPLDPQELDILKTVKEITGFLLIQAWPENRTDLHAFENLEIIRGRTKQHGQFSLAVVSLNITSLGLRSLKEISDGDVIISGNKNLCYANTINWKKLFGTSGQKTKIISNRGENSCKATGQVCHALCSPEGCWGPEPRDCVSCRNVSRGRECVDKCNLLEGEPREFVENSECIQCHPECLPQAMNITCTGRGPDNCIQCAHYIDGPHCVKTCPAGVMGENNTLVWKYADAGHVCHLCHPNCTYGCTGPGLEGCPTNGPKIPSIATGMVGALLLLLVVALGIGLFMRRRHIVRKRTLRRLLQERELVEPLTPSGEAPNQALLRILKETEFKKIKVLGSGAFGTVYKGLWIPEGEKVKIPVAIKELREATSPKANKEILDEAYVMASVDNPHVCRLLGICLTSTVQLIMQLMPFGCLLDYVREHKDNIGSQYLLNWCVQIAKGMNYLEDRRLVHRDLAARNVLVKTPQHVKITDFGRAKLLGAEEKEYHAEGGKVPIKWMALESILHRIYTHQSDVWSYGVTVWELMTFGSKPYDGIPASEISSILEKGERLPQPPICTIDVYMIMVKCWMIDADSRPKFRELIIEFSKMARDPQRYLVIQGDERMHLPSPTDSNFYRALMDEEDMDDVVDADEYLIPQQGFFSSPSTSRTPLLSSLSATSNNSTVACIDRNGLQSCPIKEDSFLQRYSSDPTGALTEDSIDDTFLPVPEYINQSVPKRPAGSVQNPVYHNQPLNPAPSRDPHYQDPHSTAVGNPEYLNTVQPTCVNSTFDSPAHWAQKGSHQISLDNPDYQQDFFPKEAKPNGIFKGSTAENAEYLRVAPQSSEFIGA
Protocol: as §1

Epidermal growth factor receptor, sequence (P00533 whole entry): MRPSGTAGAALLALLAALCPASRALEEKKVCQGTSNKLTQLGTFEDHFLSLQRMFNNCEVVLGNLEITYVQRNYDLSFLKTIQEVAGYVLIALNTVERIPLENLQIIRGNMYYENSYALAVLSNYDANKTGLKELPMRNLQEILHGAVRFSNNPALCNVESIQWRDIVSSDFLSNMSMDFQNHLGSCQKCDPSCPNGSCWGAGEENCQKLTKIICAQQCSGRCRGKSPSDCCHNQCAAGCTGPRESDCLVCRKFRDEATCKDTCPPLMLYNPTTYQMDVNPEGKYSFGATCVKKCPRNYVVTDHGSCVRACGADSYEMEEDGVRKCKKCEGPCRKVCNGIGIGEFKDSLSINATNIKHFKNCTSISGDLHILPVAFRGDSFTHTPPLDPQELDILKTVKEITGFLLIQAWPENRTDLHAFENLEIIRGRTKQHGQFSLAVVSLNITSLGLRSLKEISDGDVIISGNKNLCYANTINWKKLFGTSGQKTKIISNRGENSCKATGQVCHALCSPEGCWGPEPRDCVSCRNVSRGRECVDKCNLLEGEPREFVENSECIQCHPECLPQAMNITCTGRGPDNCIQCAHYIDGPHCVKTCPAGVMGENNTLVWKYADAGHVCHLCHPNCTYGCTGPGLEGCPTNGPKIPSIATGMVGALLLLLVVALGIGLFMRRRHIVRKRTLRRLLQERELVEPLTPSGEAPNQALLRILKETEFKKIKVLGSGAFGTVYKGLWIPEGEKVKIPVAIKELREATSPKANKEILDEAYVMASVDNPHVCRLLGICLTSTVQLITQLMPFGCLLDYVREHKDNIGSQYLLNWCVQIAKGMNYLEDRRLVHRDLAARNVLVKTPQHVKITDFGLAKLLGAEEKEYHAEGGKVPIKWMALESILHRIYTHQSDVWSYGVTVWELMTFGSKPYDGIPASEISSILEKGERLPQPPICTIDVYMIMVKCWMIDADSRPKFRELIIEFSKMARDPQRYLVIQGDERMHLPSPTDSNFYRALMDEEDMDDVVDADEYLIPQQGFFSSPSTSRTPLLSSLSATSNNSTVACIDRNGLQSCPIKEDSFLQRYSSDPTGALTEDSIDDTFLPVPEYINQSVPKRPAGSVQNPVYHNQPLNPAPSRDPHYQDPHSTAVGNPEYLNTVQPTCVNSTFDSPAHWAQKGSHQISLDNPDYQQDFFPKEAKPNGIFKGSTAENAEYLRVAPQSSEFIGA

IC50 [1]	IC50 [2]	SMILES
104 nM	1 nM	C=CC(=O)Nc1cc(Nc2ncnc(Nc3cc(F)c(F)cc3C(C)(C)O)n2)c(OC)cc1N(C)CCN1CCCCC1 [US11896597, Compound 24]
88.1 nM	1.7 nM	C=CC(=O)Nc1cc(Nc2ncnc(Nc3ccc(C)nc3C(C)(C)O)n2)c(OC)cc1N(C)CCN(C)C [US11896597, Compound 7]
62.6 nM	2.6 nM	C=CC(=O)Nc1cc(Nc2ncnc(Nc3ccccc3C3(O)COC3)n2)c(OC)cc1N(C)CCN(C)C [US11896597, Compound 10]
103 nM	8.4 nM	C=CC(=O)Nc1cc(Nc2ncnc(Nc3cnc(C)cc3C(C)(C)O)n2)c(OC)cc1N(C)CCN(C)C [US11896597, Compound 6]
20.6 nM	1.1 nM	C=CC(=O)Nc1cc(Nc2ncnc(Nc3ccc(C(F)(F)F)cc3C(C)(C)O)n2)c(OC)cc1N(C)CCN(C)C [US11896597, Compound 13]

SMILES	IC50 [1]	IC50 [2]
C=CC(=O)Nc1cc(Nc2nccc(Nc3cc(Cl)c(F)cc3C(C)(C)O)n2)c(OC)cc1N(C)C[C@H]1C[C@H](C)CN1C [US11896597, Compound 90]	357 nM	1.4 nM
